Test [1] has as its system arterial pressure of spontaneously hypertensive rats (SHR). In words: Evaluation on the arterial pressure in spontaneously hypertensive rats (SHR), telemetry. It is filed as in vivo. Conditions: SHR rat, maximum change of arterial pressure relative to basal. The method, then:
The effect of the ROCK inhibitors was tested by the reduction of the arterial pressure (AP) that they induce in spontaneously hypertensive rats (SHR) after intravenous (i.v.) and/or oral administration. In summary, the SHRs were anaesthetised with 2% isoflurane, and a telemetry probe (PAC40, Data Science International) was implanted in the abdominal aorta to record the AP and a polyethylene catheter was implanted in the jugular vein for the i.v. administration. After recovery from the surgery (2 to 3 weeks), the AP was recorded continuously for 24 hours after administration of the ROCK inhibitors at doses of 1, 3, 10 and 30 mg/kg by the i.v. route and/or by the oral route. The effect on the AP was expressed as the percentage reduction relative to the basal arterial pressure before administration of the product.

Test [2] has as its system aortic segments of the rat (contraction induced by PHE). As to the kind of experiment: Functional test (rat aorta): vascular reactivity on aortic rings without endothelium contracted with phenylephrine. Conditions: aortic rings without endothelium contracted with PHE 10^-6 M, read-out: Relaxation (rat aorta + PHE), IC50. The text has this:
Functional Test (Rat Aorta) Study of Vascular Reactivity on Aortic Segments of the Rat. After anaesthesia of the animal, the thoracic aorta is removed and immediately placed in a physiological saline solution (PSS). The proximal thoracic aorta is cleaned of adherent conjunctive tissue and 4 aortic rings (3-4 mm) are cut. The endothelium is removed mechanically without damaging the smooth muscle cells. The rings without endothelium are placed in PSS medium in isolated organ baths maintained at 37° C. in the presence of carbogen. The isometric tension of the rings is recorded by means of a force sensor. At their optimum tension, the rings are subjected to an equilibration period during which the physiological medium is replaced regularly. The preparations are then contracted twice by means of a hyperpotassic solution (KCl 60 mM), each of the 2 contractions being followed by successive washings in order to return to the original tension. The absence of endothelium is verified after contraction by an al-adrenergic receptor agonist, phenylephrine (PHE, 10^−6M), followed by the addition of carbachol (10^−5M), a muscarinic receptor agonist, which induces a relaxation only in the presence of endothelium. The rings are then washed regularly with PSS for 60 minutes in order to remove the pharmacological agents. The rings are recontracted with PHE (10^−6M) and then, after stabilisation of the contraction, the product or its solvent is added in cumulative concentrations, 5 concentrations are tested: 10M^−8, 10^−7M, 10^−6M, 10M^−5 and 3×10^−5M (if the product is dissolved in DMSO) or 10^−4M (if H2O is the solvent of the product). The contractile response is obtained in milligrams (mg). The results are expressed by the mean±SEM of the contractile responses obtained on at least 2 rats. The variations in tension of each product are calculated as a percentage of the maximum contraction induced by PHE before the product is added, according to the formula: % contraction B(t)=[×(mg) tension(compound)B(t)/y (mg) maximum tension (PHE)B]×100. The concentration-response curves obtained are analysed and allow the IC50 value of each product to be determined (IC50: concentration of product necessary to inhibit 50% of the maximum contraction induced by PHE), the estimation of the IC50 value of the concentration-response curves being obtained by non-linear regression.

For the next test, the target named is human ROCK1 (Homo sapiens, UniProt Q13464). As to the kind of experiment: ROCK1 enzymatic test (LANCE, phosphorylation of Ulight-RRRSLLE (PLK) substrate). Format: biochemical. Conditions: human recombinant enzyme, 1 μM ATP, 50 nM Ulight-RRRSLLE (PLK) substrate, 30 minutes at ambient temperature; read-out: ROCK1(h), IC50. The method, then:
Evaluation of the effects of compounds on human ROCK1 activity quantified by measuring the phosphorylation of the substrate Ulight-RRRSLLE (PLK) using a human recombinant enzyme and the LANCE® detection method.
The test compound, the reference compound or water (control) is mixed with the enzyme (8.2 ng) in a buffer comprising 40 mM Hepes/Tris (pH 7.4), 0.8 mM EGTA/Tris, 8 mM MgCl2, 1.6 mM DTT and 0.008% Tween 20.
The reaction is then started by adding 50 nM of Ulight-RRRSLLE (PLK) substrate and 1 μM of ATP, and the mixture is incubated for 30 minutes at ambient temperature. For the basal control measurements, the enzyme is excluded from the reaction mixture.
After the incubation, the reaction is stopped by adding 13 mM of EDTA. After 5 minutes, the anti-phospho-PLK antibody labelled with europium chelate is added. After a further 60 minutes, the fluorescence transfer is measured at lex=337 nm, lem=620 nm and lem=665 nm using a microplate reader (Envision, Perkin Elmer). The enzymatic activity is determined by dividing the signal measured at 665 nm by that measured at 620 nm (ratio). The results are expressed in the form of a percentage inhibition of the control enzymatic activity. The standard reference inhibition compound is staurosporine, which is tested in each experiment at several concentrations in order to obtain an inhibition curve on the basis of which the value of the IC50 (concentration that induces 50% inhibition) is calculated.
A general note: Time-resolved FRET reads energy transfer from a long-lived donor to a nearby acceptor.

Structures can show the parent of a compound that is named as a salt. Where two headings read alike, the source gives them in different places.

human ROCK1, sequence (Q13464 whole entry): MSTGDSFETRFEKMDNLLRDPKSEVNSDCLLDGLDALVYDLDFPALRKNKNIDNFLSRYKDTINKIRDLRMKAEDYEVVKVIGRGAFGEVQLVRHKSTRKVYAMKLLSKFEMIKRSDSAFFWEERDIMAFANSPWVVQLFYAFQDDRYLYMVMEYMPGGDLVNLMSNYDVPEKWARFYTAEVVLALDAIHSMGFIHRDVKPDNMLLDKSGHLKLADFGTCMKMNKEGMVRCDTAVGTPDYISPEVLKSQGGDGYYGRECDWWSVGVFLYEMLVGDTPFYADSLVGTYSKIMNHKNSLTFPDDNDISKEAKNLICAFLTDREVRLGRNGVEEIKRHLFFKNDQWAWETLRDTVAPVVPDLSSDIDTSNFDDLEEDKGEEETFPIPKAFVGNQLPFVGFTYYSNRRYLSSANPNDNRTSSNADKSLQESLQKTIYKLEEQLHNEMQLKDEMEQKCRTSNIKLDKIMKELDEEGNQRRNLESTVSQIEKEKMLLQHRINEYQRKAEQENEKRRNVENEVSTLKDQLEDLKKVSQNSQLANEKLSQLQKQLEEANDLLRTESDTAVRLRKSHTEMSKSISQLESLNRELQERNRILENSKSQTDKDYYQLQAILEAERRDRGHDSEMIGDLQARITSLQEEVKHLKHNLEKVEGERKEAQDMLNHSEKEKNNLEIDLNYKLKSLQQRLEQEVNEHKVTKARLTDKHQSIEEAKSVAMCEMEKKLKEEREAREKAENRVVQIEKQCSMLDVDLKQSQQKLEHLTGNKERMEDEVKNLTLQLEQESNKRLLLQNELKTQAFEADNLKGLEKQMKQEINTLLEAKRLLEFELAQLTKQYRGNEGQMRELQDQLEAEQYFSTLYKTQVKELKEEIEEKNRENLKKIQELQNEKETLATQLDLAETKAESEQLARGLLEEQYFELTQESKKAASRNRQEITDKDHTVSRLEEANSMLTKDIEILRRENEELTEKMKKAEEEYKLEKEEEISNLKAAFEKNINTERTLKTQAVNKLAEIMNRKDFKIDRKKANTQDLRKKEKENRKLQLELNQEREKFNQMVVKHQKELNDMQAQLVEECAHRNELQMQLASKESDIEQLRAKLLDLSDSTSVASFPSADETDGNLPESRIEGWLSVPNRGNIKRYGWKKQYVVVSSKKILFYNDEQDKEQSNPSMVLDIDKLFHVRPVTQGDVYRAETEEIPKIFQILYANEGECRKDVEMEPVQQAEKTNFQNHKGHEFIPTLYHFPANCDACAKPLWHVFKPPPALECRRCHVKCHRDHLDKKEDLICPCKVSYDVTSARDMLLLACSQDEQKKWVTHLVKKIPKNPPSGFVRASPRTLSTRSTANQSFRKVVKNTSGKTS

Broadly, the IC50 is the concentration that gives 50% inhibition. As to `Cc1cc([C@@H](C)N)ccc1C(=O)c1cccc2c(=O)[nH]ccc12` [Product P47, 5-{4-[(1R)-1-Aminoethyl]-2-methylbenzoyl}isoquinolin-1(2H)-one hydrochloride], the change in vivo at 3 mg/kg is -62.7% in test [1] (IV 3 mg/kg, read-out: SHR rat ΔAP % max, IV 3 mg/kg) and -26.4% in test [1] (PO 3 mg/kg, read-out: SHR rat ΔAP % max, PO 3 mg/kg). In addition, the IC50 came to 40 nM in test [2] and 6.78 nM at human ROCK1.

For the origin of these results see patent publication US9809553B2, “Isoquinoline compounds, a process for their preparation, and pharmaceutical compositions containing them” (LES LABORATOIRES SERVIER, priority 2014, dated 2017).
